Inhibition data for twelve compounds are collected here from the kinase profiling compilation of Christmann-Franck et al. (2016).

Experiment [1] has as its target AKT1 (human) (UniProt P31749). Conditions: compound 10.0 µM.
For experiment [2], the target named is FGFR1 (human) (UniProt P11362). Conditions: compound 10.0 µM.
For experiment [3], the target named is PIM1 (human) (UniProt P11309). The conditions noted are these: compound 10.0 µM.
The target of experiment [4] is PRKAA1 (human) (UniProt Q13131). Conditions: compound 10.0 µM.
PRKAA1 (human), sequence (Q13131 whole entry, looked up): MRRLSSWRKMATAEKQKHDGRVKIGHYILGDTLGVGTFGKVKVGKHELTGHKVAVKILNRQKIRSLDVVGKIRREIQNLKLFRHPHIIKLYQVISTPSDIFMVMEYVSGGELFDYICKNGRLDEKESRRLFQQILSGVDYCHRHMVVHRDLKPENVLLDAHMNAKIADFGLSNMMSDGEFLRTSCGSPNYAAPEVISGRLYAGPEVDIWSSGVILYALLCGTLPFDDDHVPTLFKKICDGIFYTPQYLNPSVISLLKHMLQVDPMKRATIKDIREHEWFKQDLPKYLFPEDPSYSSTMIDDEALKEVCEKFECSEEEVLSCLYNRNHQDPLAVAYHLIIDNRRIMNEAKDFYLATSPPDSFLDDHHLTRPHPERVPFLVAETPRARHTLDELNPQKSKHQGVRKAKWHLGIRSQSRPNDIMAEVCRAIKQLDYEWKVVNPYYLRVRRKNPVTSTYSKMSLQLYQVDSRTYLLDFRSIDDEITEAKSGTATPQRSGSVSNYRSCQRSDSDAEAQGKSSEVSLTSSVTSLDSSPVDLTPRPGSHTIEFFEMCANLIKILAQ
Experiment [5] addresses PRKAA2 (human) (UniProt P54646). The conditions noted are these: compound 10.0 µM.
In experiment [6] the test system is PRKACA (mouse). The conditions noted are these: compound 10.0 µM; accession and sequence are those of the human protein.

AKT1 (human), sequence (P31749 whole entry, looked up): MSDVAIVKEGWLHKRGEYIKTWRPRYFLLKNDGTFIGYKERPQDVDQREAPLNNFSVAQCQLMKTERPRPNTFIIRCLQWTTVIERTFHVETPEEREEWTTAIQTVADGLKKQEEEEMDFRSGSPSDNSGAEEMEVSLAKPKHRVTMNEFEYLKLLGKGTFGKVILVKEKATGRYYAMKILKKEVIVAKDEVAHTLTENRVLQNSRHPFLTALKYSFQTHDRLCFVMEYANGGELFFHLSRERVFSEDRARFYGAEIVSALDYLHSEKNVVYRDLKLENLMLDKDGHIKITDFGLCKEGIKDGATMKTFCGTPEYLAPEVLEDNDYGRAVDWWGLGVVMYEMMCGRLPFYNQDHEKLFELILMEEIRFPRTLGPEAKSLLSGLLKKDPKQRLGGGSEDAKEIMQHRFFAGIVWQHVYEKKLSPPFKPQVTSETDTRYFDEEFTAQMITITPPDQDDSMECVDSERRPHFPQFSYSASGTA
PIM1 (human), sequence (P11309 whole entry, looked up): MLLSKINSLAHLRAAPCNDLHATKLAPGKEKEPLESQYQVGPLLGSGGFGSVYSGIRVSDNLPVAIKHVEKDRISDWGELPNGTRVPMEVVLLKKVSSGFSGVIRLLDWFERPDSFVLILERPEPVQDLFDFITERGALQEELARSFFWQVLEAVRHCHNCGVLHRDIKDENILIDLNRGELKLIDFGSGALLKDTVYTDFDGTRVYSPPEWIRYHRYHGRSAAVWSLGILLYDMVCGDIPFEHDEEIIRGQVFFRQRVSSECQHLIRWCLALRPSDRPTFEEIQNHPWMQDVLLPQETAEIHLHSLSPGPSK
PRKAA2 (human), sequence (P54646 whole entry, looked up): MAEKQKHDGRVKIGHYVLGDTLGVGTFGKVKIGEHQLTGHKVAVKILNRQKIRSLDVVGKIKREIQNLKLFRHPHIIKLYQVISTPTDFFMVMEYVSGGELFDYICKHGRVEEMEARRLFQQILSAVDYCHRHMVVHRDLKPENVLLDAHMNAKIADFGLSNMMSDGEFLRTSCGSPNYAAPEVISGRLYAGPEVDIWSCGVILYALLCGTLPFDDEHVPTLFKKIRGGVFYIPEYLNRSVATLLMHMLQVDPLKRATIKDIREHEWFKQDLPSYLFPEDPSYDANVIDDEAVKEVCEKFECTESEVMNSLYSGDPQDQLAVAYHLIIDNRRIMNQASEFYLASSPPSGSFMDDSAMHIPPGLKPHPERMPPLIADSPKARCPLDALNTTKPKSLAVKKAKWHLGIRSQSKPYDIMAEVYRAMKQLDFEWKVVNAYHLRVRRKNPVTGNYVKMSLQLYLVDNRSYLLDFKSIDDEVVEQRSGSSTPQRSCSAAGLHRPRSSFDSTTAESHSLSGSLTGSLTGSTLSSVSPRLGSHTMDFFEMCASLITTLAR
FGFR1 (human), sequence (P11362 whole entry, looked up): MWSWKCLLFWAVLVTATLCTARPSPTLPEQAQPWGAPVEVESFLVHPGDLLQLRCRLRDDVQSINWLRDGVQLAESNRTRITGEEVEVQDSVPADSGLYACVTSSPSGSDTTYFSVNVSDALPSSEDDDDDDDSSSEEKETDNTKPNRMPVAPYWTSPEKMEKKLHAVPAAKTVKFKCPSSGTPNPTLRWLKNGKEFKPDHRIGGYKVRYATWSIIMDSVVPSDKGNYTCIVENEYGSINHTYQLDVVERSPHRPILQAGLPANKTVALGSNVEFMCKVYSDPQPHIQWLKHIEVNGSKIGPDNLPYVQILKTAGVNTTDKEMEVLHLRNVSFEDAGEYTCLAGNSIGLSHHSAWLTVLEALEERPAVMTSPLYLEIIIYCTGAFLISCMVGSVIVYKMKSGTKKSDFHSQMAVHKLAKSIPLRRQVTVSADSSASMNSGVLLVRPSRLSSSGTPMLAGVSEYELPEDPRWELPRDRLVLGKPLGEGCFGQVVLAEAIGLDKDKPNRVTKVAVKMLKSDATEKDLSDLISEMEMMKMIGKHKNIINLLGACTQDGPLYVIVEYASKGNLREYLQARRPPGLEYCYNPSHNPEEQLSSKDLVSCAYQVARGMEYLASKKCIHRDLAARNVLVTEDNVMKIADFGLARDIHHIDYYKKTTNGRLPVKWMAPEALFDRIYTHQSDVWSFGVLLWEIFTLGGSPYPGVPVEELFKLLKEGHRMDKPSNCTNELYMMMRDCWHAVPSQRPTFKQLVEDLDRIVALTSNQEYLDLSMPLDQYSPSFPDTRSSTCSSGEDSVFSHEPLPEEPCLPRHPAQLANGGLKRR

The term inhibition denotes how much of the control response was suppressed. For `CC(C)(C)n1nc(-c2ccc(Cl)cc2)c2c(N)ncnc21`, the inhibition was 0% in experiment [1]; 43% in experiment [2]; 4% in experiment [3]; 0% in experiment [4]; 0% in experiment [5]; 30% in experiment [6].

Take `CS(=O)(=O)CCNCc1nc(-c2ccc3ncnc(Nc4ccc(OCc5cccc(F)c5)c(Cl)c4)c3c2)cs1`: the inhibition in experiment [1] was 16%; in experiment [2] it was 8%; in experiment [3] it was 11%; in experiment [4] it was 0%; in experiment [5], 0%; in experiment [6], 8%.

Turning to `CN(C)c1ccc(/C=C2\C(=O)Nc3ccccc32)cc1`, the inhibition in experiment [1] was found to be 0%; in experiment [2] it was 9%; in experiment [3], 1%; in experiment [4], 1%; in experiment [5], 0%; in experiment [6], 1%.

With `CC(C)(C)n1nc(-c2cccc3ccccc23)c2c(N)ncnc21`, the inhibition in experiment [1] came out at 18%; in experiment [2], 60%; in experiment [3], 9%; in experiment [4], 1%; in experiment [5], 1%; in experiment [6] it was 32%.

Regarding `N#C/C(=C(/N)Sc1ccc(N)cc1)c1ccccc1C(F)(F)F`, the inhibition in experiment [1] was 0%; in experiment [2] it was 0%; in experiment [3], 5%; in experiment [4], 0%; in experiment [5], 0%; in experiment [6] it was 2%.

Regarding `O=c1cc(N2CCOCC2)oc2c1ccc1ccccc12`, the inhibition came to 0% in experiment [1]; 4% in experiment [2]; 74% in experiment [3]; 0% in experiment [4]; 0% in experiment [5]; 0% in experiment [6].

`Cc1cc(F)c(Nc2ncnc3cc(OCc4ccccc4)ccc23)cc1O`: the inhibition in experiment [1] amounted to 0%; in experiment [2], 10%; in experiment [3], 1%; in experiment [4], 13%; in experiment [5], 0%; in experiment [6], 2%.

For the compound `c1cc(-c2cnn3cc(-c4ccc(OCCN5CCCCC5)cc4)cnc23)ccn1`, the inhibition came out at 0% in experiment [1]; 21% in experiment [2]; 0% in experiment [3]; 45% in experiment [4]; 49% in experiment [5]; 0% in experiment [6].

Regarding `COc1ccc(Cl)cc1NC(=O)Nc1cc(C)nc2ccccc12`, the inhibition in experiment [1] came out at 0%; in experiment [2], 7%; in experiment [3] it was 14%; in experiment [4] it was 0%; in experiment [5] it was 0%; in experiment [6], 5%.

As for `COc1nccc(-c2c(-c3ccc(F)cc3)ncn2[C@H]2CC[C@H](O)CC2)n1`, the inhibition in experiment [1], in experiment [2], in experiment [3], in experiment [4], in experiment [5] and in experiment [6] was 0% throughout.

With `N#C/C(=C\c1ccc(O)c(O)c1)C(N)=S`, the inhibition in experiment [1] was determined as 0%; in experiment [2], 11%; in experiment [3] it was 30%; in experiment [4], 0%; in experiment [5], 0%; in experiment [6], 4%.

Take `Cc1cc(C)c(/C=C2\C(=O)Nc3ccccc32)[nH]1`: the inhibition in experiment [1] came to 0%; in experiment [2], 22%; in experiment [3], 0%; in experiment [4], 50%; in experiment [5], 45%; in experiment [6], 0%.
